Laboratory results published in patent US20260041620A1, “NOVEL AMINO ACID BASED SALTS, COMPOSITIONS AND METHODS FOR TREATING SKIN AND IMPROVING SKIN REJUVENATION AND LONGEVITY” (Sytheon Ltd, priority 2023, published 2026).
Where two headings read alike, the source gives them in different places.

Experiments:
FABP-5 = target: T1, FABP-5 (Homo sapiens, UniProt Q01469); assay: FABP-5 ELISA inhibitory assay; assay type: biochemical
T1 construct: purchased Raybiotech 268-10276-1

HDAC6 = target: T2, HDAC6 (Homo sapiens, UniProt Q9UBN7)
T2 sequence (Q9UBN7 1-1215): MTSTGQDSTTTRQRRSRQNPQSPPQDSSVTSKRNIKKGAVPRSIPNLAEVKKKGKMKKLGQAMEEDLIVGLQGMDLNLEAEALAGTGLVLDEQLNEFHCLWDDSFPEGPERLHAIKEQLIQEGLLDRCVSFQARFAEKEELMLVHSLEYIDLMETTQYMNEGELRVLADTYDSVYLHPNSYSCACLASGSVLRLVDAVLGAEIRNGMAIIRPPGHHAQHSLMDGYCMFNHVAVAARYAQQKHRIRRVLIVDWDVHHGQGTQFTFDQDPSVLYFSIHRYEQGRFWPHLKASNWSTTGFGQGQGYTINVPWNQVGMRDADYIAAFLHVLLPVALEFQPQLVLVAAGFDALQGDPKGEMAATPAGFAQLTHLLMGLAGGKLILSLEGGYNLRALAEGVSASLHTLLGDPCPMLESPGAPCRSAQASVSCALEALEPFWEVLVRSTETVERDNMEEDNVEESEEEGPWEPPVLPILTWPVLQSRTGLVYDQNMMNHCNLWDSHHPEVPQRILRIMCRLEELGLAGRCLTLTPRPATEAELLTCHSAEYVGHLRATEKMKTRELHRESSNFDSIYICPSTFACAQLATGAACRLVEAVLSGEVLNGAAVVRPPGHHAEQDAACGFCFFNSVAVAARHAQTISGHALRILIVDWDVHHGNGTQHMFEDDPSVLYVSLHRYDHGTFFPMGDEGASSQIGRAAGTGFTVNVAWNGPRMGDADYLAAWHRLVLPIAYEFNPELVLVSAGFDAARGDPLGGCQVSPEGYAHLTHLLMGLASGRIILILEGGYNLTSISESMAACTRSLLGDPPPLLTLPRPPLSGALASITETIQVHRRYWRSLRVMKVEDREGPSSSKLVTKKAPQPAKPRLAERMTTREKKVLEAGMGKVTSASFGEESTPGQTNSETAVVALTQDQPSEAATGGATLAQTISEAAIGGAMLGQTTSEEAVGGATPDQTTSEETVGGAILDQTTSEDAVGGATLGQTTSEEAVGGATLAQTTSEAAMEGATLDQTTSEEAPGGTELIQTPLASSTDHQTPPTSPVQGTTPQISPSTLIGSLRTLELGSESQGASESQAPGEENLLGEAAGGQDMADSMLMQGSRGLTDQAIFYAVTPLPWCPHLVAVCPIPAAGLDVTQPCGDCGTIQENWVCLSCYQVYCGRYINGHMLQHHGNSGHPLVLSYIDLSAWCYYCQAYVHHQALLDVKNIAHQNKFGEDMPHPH
Protocol: (§1) Test materials were stored at room temperature and stock solutions were prepared at 20 mg/ml in DMSO. Further dilutions were made in sterile distilled water immediately before being added to the reaction mixture containing a substrate, and the reaction was triggered by the addition of purified HDAC enzymes, Double distilled water was the negative control and trichostatin (1.5 ug/ml) was used as a positive control for validation of each study. The test procedure was as directed in the assay kits. The products of the reactions were measured by fluorometry at ex/em 350/450 nm using multi-well plate fluorometer Cytofluor 4000 (Applied Biosystem, Foster City, CA) or using SpectraMax i3× Multi-Mode Detection Platform from Molecular Devices (Sunnyvale, CA).
(§2) Statistical significance was assessed with a two-tail Student test. Deviations of ≤20% as compared to water control with p values below 0.05 were considered statistically significant.

HDAC7 = target: T3, HDAC7 (Homo sapiens, UniProt Q8WUI4)
T3 sequence (Q8WUI4 1-952): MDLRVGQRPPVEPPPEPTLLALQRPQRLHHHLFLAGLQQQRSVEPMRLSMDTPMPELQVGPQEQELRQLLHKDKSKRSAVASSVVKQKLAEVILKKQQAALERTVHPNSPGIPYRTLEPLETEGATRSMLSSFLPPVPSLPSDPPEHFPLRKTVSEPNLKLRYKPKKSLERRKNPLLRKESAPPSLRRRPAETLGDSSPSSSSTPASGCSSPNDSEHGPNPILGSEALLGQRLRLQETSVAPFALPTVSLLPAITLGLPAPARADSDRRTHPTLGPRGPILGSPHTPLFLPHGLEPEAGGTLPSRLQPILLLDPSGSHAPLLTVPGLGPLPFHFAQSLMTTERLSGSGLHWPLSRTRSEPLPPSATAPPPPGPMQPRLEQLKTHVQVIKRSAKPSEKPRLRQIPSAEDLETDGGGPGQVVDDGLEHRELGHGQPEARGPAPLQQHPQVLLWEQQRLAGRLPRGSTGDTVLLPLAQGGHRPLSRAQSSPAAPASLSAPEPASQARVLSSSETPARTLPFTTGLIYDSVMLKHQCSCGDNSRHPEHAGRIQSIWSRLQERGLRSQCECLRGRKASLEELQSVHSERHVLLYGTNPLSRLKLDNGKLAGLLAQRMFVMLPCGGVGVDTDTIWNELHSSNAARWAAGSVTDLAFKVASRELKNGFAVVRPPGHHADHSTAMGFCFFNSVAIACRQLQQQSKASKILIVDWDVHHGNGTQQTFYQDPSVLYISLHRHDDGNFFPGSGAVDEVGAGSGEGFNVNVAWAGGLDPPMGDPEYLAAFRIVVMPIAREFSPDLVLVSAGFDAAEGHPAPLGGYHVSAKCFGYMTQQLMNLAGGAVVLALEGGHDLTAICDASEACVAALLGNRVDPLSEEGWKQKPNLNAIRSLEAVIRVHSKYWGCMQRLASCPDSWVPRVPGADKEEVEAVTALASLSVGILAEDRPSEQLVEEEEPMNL
Protocol: as §1, §2

HDAC 8 = target: T4, HDAC 8 (Homo sapiens, UniProt Q9BY41)
T4 sequence (Q9BY41 1-377): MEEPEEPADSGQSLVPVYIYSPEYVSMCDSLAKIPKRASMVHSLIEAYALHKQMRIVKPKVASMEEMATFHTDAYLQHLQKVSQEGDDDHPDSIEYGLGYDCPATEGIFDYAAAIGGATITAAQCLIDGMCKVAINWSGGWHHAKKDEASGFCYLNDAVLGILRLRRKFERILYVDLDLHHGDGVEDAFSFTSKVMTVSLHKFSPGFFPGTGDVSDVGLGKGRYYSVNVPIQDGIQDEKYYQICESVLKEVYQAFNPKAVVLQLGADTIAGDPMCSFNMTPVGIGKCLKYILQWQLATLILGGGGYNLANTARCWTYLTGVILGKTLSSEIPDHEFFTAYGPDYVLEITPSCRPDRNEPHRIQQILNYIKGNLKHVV
Protocol: as §1, §2

HDAC 9 = HDAC 9 (Homo sapiens, UniProt Q9UKV0)
Chain of HDAC 9 (Q9UKV0 whole entry): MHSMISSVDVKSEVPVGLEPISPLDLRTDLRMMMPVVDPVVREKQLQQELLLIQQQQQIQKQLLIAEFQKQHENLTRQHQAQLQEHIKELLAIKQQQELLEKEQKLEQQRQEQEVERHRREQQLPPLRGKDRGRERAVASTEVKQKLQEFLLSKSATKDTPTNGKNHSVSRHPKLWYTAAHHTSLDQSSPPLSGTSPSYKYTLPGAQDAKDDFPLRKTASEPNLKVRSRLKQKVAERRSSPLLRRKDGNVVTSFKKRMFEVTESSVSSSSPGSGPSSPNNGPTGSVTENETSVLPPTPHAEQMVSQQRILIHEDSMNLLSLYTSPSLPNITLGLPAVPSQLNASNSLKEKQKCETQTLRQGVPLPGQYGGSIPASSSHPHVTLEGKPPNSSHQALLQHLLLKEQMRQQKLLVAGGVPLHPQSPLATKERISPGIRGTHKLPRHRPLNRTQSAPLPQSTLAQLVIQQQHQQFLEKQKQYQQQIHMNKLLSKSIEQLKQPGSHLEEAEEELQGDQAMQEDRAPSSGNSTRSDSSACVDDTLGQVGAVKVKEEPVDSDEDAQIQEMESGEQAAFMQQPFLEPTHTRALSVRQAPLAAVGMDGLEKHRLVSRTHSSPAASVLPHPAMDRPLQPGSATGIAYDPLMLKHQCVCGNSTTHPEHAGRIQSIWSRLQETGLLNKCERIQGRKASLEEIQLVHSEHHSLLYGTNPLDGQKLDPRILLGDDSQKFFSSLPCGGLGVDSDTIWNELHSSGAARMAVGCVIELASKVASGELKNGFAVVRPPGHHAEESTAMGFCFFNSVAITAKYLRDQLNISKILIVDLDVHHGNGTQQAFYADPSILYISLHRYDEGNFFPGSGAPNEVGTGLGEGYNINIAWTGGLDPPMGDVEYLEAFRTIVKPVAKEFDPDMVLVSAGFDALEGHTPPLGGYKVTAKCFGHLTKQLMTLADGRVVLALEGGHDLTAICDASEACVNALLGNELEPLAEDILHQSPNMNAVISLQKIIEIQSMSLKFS
Protocol: as §1, §2

T1 sequence (Q01469 whole entry): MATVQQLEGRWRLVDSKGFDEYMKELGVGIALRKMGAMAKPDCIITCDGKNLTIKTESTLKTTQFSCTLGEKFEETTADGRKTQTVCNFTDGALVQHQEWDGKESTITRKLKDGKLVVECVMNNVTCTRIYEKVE

CCCC(=O)NCCCCC(NC(=O)CCC)C(=O)[O-].CCCC(=O)NCCCCC(NC(=O)CCC)C(=O)[O-].[Ca+2] (centres unmarked) [Ca di-(di-n-butyryl lysinate), calcium di-(di-n-butyryl lysinate)]
FABP-5 IC50 (FABP-5): 786 µg/mL
HDAC 6 activity, % of water-treated controls (HDAC6; 5 ug/ml): 105%
HDAC 6 activity, % of water-treated controls (HDAC6; 25 ug/ml): 97%
HDAC 6 activity, % of water-treated controls (HDAC6; 50 ug/ml): 124%
HDAC 6 activity, % of water-treated controls (HDAC6; 100 ug/ml): 128%
HDAC 6 activity, % of water-treated controls (HDAC6; 200 ug/ml): 134%
HDAC 7 activity, % of water-treated controls (HDAC7; 25 ug/ml): 101%
HDAC 7 activity, % of water-treated controls (HDAC7; 50 ug/ml): 99%
HDAC 7 activity, % of water-treated controls (HDAC7; 100 ug/ml): 99%
HDAC 7 activity, % of water-treated controls (HDAC7; 200 ug/ml): 97%
HDAC 8 activity, % of water-treated controls (HDAC 8; 5 ug/ml): 91%
HDAC 8 activity, % of water-treated controls (HDAC 8; 25 ug/ml): 148%
HDAC 8 activity, % of water-treated controls (HDAC 8; 50 ug/ml): 174%
HDAC 8 activity, % of water-treated controls (HDAC 8; 100 ug/ml): 155%
HDAC 8 activity, % of water-treated controls (HDAC 8; 200 ug/ml): 111%
HDAC 9 activity, % of water-treated controls (HDAC 9; 5 ug/ml): 212%
HDAC 9 activity, % of water-treated controls (HDAC 9; 25 ug/ml): 178%
HDAC 9 activity, % of water-treated controls (HDAC 9; 50 ug/ml): 242%
HDAC 9 activity, % of water-treated controls (HDAC 9; 100 ug/ml): 289%
HDAC 9 activity, % of water-treated controls (HDAC 9; 200 ug/ml): 258%
